# Reference: patent US20200239530A1, “COMPOUNDS AND METHODS OF MODULATING PROTEIN DEGRADATION” (Vividion Therapeutics, Inc., priority 2017, published 2020)
# Key:
# [1] = target: T1, FASTKD5 FAST kinase domain-containing protein 5 (Homo sapiens, UniProt Q7L8L6); test: Cysteine liganding, probe competition; type: binding
# T1 construct: 200 μL of lysate containing 5 mg/ml proteome was treated with 2 μL of 100× compound stock; endogenous in cells
# T1 sequence (Q7L8L6 28-764): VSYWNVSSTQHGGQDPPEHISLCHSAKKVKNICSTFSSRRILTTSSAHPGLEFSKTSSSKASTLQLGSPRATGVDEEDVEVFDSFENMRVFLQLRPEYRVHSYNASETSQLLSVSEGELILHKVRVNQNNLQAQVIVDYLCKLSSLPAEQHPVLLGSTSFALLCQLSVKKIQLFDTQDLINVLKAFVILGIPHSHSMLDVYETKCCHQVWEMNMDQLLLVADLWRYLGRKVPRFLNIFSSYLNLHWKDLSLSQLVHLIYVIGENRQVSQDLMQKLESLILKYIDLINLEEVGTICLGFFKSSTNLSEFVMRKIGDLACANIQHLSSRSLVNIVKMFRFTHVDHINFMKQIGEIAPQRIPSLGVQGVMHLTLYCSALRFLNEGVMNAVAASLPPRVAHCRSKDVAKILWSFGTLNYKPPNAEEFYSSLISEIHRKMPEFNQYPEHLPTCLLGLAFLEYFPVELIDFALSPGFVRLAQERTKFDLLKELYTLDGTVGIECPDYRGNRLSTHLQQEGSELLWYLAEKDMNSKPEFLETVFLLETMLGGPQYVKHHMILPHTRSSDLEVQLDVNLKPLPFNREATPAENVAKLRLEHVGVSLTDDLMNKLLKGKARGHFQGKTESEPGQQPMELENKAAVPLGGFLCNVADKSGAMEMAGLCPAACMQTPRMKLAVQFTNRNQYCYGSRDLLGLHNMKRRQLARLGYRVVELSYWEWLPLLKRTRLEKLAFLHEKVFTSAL
# Procedure, shortened: (§1)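 Probe competition in native proteome: 5 mg/ml lysate, compound 1 hr 25° C, then desthiobiotin iodoacetamide (10 mM stock) 1 hr 25° C; acetone ppt, urea/DTT reduction, iodoacetamide alkylation, trypsin, streptavidin pull-down.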
# [2] = target: T2, FBXO30 F-box only protein 30 (Homo sapiens, UniProt Q8TB52); test: Cysteine liganding, probe competition; type: binding
# T2 construct: Cells were resuspended in cold PBS on ice and sonicated with a probe sonicator to achieve lysis; endogenous in cells
# T2 sequence (Q8TB52 1-745): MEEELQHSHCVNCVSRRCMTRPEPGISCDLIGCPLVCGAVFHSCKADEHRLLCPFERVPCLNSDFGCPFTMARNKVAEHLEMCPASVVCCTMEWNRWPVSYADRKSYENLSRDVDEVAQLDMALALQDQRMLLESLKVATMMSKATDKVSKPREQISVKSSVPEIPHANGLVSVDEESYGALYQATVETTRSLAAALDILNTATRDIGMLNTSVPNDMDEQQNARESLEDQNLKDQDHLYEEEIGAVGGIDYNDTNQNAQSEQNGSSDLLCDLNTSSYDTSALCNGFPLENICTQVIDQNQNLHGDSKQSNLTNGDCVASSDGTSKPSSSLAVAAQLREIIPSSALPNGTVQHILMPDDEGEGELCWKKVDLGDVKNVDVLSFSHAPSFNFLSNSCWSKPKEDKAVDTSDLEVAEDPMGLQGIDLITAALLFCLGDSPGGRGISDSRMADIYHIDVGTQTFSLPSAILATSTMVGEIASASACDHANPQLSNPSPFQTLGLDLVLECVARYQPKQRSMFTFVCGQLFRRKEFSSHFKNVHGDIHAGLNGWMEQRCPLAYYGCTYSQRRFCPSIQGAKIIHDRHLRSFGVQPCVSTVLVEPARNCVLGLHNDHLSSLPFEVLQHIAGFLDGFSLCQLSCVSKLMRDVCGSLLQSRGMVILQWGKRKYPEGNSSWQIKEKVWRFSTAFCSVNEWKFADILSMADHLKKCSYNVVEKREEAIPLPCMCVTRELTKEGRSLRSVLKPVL
# Procedure, shortened: as §1
SMILES,"Liganded ([1]; FASTKD5 Res# 670, uniprot Q7L8L6)","Liganded ([2]; FBXO30 Res# 725, uniprot Q8TB52)",100 Max ([1]; uniprot Q7L8L6),100 ave ([1]; uniprot Q7L8L6),500 Max ([1]; uniprot Q7L8L6),500 ave ([1]; uniprot Q7L8L6),100 Max ([2]; uniprot Q8TB52),100 ave ([2]; uniprot Q8TB52),500 ave ([2]; uniprot Q8TB52),"500 Max ([2]; uniprot Q8TB52, unit assumed)"
COc1ccc2c(c1)CCCN2C(=O)CCl [KB02],YES,YES,–,–,–,–,–,–,–,–
O=C(CCl)Nc1cc(C(F)(F)F)cc(C(F)(F)F)c1 [KBO3],–,–,14.75,14.55,57.23,45.06,10.4,4.3,25.0,39.5%
